Laboratory results reported in patent publication US12662491B2 (Redona Therapeutics, Inc., priority 2020, dated 2026).

molecular target: T1, Zcchc11 enzyme (Homo sapiens, UniProt Q5TAX3); assay: TUTase assay (Zcchc11 assay, Lin28a-dependent polyuridylation of pre-let-7); assay type: biochemical; details: Lin28a-dependent Zcchc11 (Z11) TUTase assay; read-out: Potency Lin28a-dep Z11 IC50
T1 construct: made in house; host or cells: HEK293 cells (Zcchc11); E. coli Rosetta II (LIN28A)
T1 sequence (Q5TAX3 212-1420): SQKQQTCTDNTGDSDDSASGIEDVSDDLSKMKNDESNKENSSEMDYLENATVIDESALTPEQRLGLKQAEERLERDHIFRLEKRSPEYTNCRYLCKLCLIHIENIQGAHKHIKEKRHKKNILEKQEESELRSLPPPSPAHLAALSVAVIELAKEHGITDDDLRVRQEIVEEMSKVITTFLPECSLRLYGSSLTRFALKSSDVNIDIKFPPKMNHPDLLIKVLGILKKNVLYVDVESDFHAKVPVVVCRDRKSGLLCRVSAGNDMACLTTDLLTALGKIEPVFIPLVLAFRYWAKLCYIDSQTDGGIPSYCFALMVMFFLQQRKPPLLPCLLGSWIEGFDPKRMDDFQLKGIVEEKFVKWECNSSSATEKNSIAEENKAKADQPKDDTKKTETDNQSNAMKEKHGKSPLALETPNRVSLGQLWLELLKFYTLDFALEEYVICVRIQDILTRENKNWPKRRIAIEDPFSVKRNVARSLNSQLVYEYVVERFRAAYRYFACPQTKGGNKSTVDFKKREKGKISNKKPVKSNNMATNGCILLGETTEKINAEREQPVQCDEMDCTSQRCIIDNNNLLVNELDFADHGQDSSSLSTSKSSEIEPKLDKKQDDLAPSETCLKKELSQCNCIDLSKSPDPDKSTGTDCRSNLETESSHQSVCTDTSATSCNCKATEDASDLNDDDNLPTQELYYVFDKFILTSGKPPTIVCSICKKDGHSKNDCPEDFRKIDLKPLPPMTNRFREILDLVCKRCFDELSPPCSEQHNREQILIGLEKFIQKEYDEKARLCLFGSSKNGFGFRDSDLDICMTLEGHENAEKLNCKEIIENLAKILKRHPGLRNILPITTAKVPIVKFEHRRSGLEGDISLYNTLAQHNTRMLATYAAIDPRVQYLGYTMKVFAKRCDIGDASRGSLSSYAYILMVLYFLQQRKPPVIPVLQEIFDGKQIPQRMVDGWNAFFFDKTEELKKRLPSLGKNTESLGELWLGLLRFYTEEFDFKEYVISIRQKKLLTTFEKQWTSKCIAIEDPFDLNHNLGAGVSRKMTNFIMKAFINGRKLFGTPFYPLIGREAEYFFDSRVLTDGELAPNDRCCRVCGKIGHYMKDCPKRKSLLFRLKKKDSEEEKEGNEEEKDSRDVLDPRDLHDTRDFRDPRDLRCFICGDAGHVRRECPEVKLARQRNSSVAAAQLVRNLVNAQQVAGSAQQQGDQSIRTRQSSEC
Summary of the method: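 Human Zcchc11 residues 212-1420 (HEK293-expressed, MBP tag cleaved, C-terminal FLAG) at 0.2 nM, with 10 nM full-length human LIN28A and 2 nM 5′-fluorescein pre-let-7, preincubated with compound 30 min at room temperature. Reaction started with 5 uM UTP plus 4 nM 3′-rhodamine A20 quench probe; fluorescein loss read kinetically, IC50 from initial rates.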

SMILES | IC50 [µM]
Cc1cccnc1OC[C@H]1CCCN1c1cc2c(cc1Cl)c(=O)c(C(=O)O)cn2C1(C)CCCC1 [Example 457, (R)-6-chloro-1-(1-methylcyclo-pentyl)-7-(2-(((3-methylpyridin-2-yl)oxy)methyl)pyrrolidin-1-yl)-4-oxo-1,4-dihydroquinoline-3-carboxylic acid] | ≤ 1
Cc1cccnc1OC[C@H]1CCCN1c1cc2c(cc1Cl)c(=O)c(C(=O)O)cn2C1(C)CCOCC1 [Example 459, (R)-6-chloro-7-(2-(((3-methylpyridin-2-yl)oxy)methyl)pyrrolidin-1-yl)-1-(4-methyltetra-hydro-2H-pyran-4-yl)-4-oxo-1,4-dihydroquinoline-3-carboxylic acid] | 1 to 10
COCCN1CCC(n2cc(C(=O)O)c(=O)c3cc(Cl)c(N4CCC[C@@H]4COc4ncccc4Cl)cc32)CC1 [Example 463, (R)-6-chloro-7-(2-(((3-chloropyridin-2-yl)oxy)methyl)pyrrolidin-1-yl)-1-(1-(2-methoxy-ethyl)piperidin-4-yl)-4-oxo-1,4-dihydroquinoline-3-carboxylic acid] | 1 to 10
CN(C)C1CN(c2ccc(-n3cc(C(=O)O)c(=O)c4cc(Cl)c(N5C[C@@H](F)C[C@@H]5COc5ncccc5Cl)cc43)cn2)C1 [Example 464, 6-chloro-7-((2R,4S)-2-(((3-chloropyridin-2-yl)oxy)methyl)-4-fluoropyrrolidin-1-yl)-1-(6-(3-(dimethylamino)azetidin-1-yl)pyridin-3-yl)-4-oxo-1,4-dihydroquinoline-3-carboxylic acid] | ≤ 1
CN(C)C1CN(c2ccc(-n3cc(C(=O)O)c(=O)c4cc(Cl)c(N5C[C@@H](F)C[C@@H]5COc5ncccc5F)cc43)cn2)C1 [Example 466, 6-chloro-1-(6-(3-(dimethylamino)azetidin-1-yl)pyridin-3-yl)-7-((2R,4S)-4-fluoro-2-(((3-fluoropyridin-2-yl)oxy)methyl)pyrrolidin-1-yl)-4-oxo-1,4-dihydroquinoline-3-carboxylic acid] | ≤ 1
Cc1cc2c(=O)c(C(=O)O)cn(-c3ccc(N4CC(N(C)C)C4)nc3)c2cc1N1C[C@@H](F)C[C@@H]1COc1ncccc1Cl [Example 467, 7-((2R,4S)-2-(((3-chloropyridin-2-yl)oxy)methyl)-4-fluoropyrrolidin-1-yl)-1-(6-(3-(dimethylamino)azetidin-1-yl)pyridin-3-yl)-6-methyl-4-oxo-1,4-dihydroquinoline-3-carboxylic acid] | ≤ 1
O=C(O)c1cn(-c2cnccn2)c2cc(N3C[C@@H](F)C[C@H]3COc3ncccc3Cl)c(Cl)cc2c1=O [Example 468, 6-chloro-7-[(2S,4S)-2-{[(3-chloropyridin-2-yl)oxy]methyl}-4-fluoropyrrolidin-1-yl]-4-oxo-1-(pyrazin-2-yl)-1,4-dihydroquinoline-3-carboxylic acid] | 10 to 50
O=C(O)c1cn(C2CCc3nccn3C2)c2cc(N3CCC[C@@H]3COc3ncccc3Cl)c(Cl)cc2c1=O (stereo partly drawn) [Example 469, 6-chloro-7-((R)-2-(((3-chloropyridin-2-yl)oxy)methyl)pyrrolidin-1-yl)-4-oxo-1-(5,6,7,8-tetrahydroimidazo [1,2-a]pyridin-6-yl)-1,4-dihydroquinoline-3-carboxylic acid] | ≤ 1
COCCN1CC(n2cc(C(=O)O)c(=O)c3cc(Cl)c(N4CCC[C@@H]4COc4ncccc4Cl)cc32)C1 [Example 470, (R)-6-chloro-7-(2-(((3-chloropyridin-2-yl)oxy)methyl)pyrrolidin-1-yl)-1-(1-(2-methoxy-ethyl)azetidin-3-yl)-1-(1-(2-methoxyethyl)azetidin-3-yl)-4-oxo-1,4-dihydroquinoline-3-carboxylic acid] | 1 to 10
NC1CC(n2cc(C(=O)O)c(=O)c3cc(Cl)c(N4CCC[C@@H]4COc4ncccc4Cl)cc32)C1 (stereo partly drawn) [Example 471, (R)-1-(3-aminocyclobutyl)-6-chloro-7-(2-(((3-chloropyridin-2-yl)oxy)methyl)pyrrolidin-1-yl)-4-oxo-1,4-dihydroquinoline-3-carboxylic acid] | 1 to 10
O=C(O)c1cn(-c2cnc3[nH]ncc3c2)c2cc(N3CCC[C@@H]3COc3ncccc3Cl)c(Cl)cc2c1=O [Example 475, (R)-6-chloro-7-(2-(((3-chloropyridin-2-yl)oxy)methyl)pyrrolidin-1-yl)-4-oxo-1-(1H-pyrazolo[3,4-b]pyridin-5-yl)-1,4-dihydroquinoline-3-carboxylic acid] | ≤ 1

The next lines start with the values.

IC50 [µM] | SMILES
1 to 10 | Cc1cccnc1OC[C@H]1CCCN1c1cc2c(cc1Cl)c(=O)c(C(=O)O)cn2C1(C)CCC1 [Example 455, (R)-6-chloro-1-(1-methylcyclobutyl)-7-(2-(((3-methylpyridin-2-yl)oxy)methyl)pyrrolidin-1-yl)-4-oxo-1,4-dihydroquinoline-3-carboxylic acid]
1 to 10 | Cc1cccnc1OC[C@H]1CCCN1c1cc2c(cc1Cl)c(=O)c(C(=O)O)cn2C1(C)COC1 [Example 456, (R)-6-chloro-1-(3-methyloxetan-3-yl)-7-(2-(((3-methylpyridin-2-yl)oxy)methyl)pyrrolidin-1-yl)-4-oxo-1,4-dihydroquinoline-3-carboxylic acid]
1 to 10 | Cc1cccnc1OC[C@H]1CCCN1c1cc2c(cc1Cl)c(=O)c(C(=O)O)cn2C1CN(C)C1 [Example 458, (R)-6-chloro-1-(1-methylazetidin-3-yl)-7-(2-(((3-methylpyridin-2-yl)oxy)methyl)pyrrolidin-1-yl)-4-oxo-1,4-dihydroquinoline-3-carboxylic acid]
≤ 1 | Cc1cccnc1OC[C@H]1CCCN1c1cc2c(cc1Cl)c(=O)c(C(=O)O)cn2C1(C)CC1 [Example 460, (R)-6-chloro-1-(1-methylcyclo-propyl)-7-(2-(((3-methylpyridin-2-yl)oxy)methyl)pyrrolidin-1-yl)-4-oxo-1,4-dihydroquinoline-3-carboxylic acid]
1 to 10 | CN1CCC(n2cc(C(=O)O)c(=O)c3cc(Cl)c(N4CCC[C@@H]4COc4ncccc4Cl)cc32)C1 (stereo partly drawn) [Example 461, 6-chloro-7-((R)-2-(((3-chloropyridin-2-yl)oxy)methyl)pyrrolidin-1-yl)-1-(1-methyl-pyrrolidin-3-yl)-4-oxo-1,4-dihydroquinoline-3-carboxylic acid]
1 to 10 | CN1CCC(n2cc(C(=O)O)c(=O)c3cc(Cl)c(N4CCC[C@@H]4COc4ncccc4Cl)cc32)CC1 [Example 462, (R)-6-chloro-7-(2-(((3-chloropyridin-2-yl)oxy)methyl)pyrrolidin-1-yl)-1-(1-methyl-piperidin-4-yl)-4-oxo-1,4-dihydro-quinoline-3-carboxylic acid]
≤ 1 | CN(C)C1CN(c2ccc(-n3cc(C(=O)O)c(=O)c4cc(F)c(N5C[C@@H](F)C[C@@H]5COc5ncccc5F)cc43)cn2)C1 [Example 465, 1-(6-(3-(dimethylamino)azetidin-1-yl)pyridin-3-yl)-6-fluoro-7-((2R,4S)-4-fluoro-2-(((3-fluoropyridin-2-yl)oxy)methyl)pyrrolidin-1-yl)-4-oxo-1,4-dihydroquinoline-3-carboxylic acid]
≤ 1 | O=C(O)c1cn(-c2ccc(NS(=O)(=O)C3CC3)cc2)c2cc(N3CCC[C@@H]3COc3ncccc3Cl)c(Cl)cc2c1=O [Example 472, 6-chloro-7-[(2R)-2-{[(3-chloropyridin-2-yl)oxy)methyl}pyrrolidin-1-yl]-1-(4-cyclopropane-sulfonamido-phenyl)-4-oxo-1,4-dihydroquinoline-3-carboxylic acid]
≤ 1 | Nc1cc(-n2cc(C(=O)O)c(=O)c3cc(Cl)c(N4CCC[C@@H]4COc4ncccc4Cl)cc32)ccn1 [Example 473, (R)-1-(2-aminopyridin-4-yl)-6-chloro-7-(2-(((3-chloropyridin-2-yl)oxy)methyl)pyrrolidin-1-yl)-4-oxo-1,4-dihydroquinoline-3-carboxylic acid]
≤ 1 | O=C(O)c1cn(-c2cc3cn[nH]c3cn2)c2cc(N3CCC[C@@H]3COc3ncccc3Cl)c(Cl)cc2c1=O [Example 474, (R)-6-chloro-7-(2-(((3-chloropyridin-2-yl)oxy)methyl)pyrrolidin-1-yl)-4-oxo-1-(1H-pyrazolo[3,4-c]pyridin-5-yl)-1,4-dihydroquinoline-3-carboxylic acid]
